Data from PMC3268023, “Simple Preparation of Pacific Cod Trypsin for Enzymatic Peptide Synthesis” (Journal of Amino Acids, 2011).
Where a name gives a salt, the structure may show the parent alone.

Legend:
[1] = system: Pacific cod trypsin (PcT); experiment: p-nitroaniline release at […] nm, Lineweaver-Burk; assay type: biochemical, Gadus macrocephalus; conditions: 50 mM Tris-HCl pH 8.0, 10 mM CaCl2, 30°C, substrate in DMSO (10 of 200 μL)
[2] = system: Pacific cod trypsin (PcT); experiment: inverse substrate hydrolysis, absorbance at […] nm, Lineweaver-Burk; assay type: biochemical, Gadus macrocephalus; conditions: 50 mM Tris-HCl pH 8.0, 10 mM CaCl2, 30°C, substrate in DMSO (10 of 200 μL)

Km [1] [µM]	SMILES	Km [2] [µM]
37	N=C(N)NCCC[C@H](NC(=O)c1ccccc1)C(=O)Nc1ccc([N+](=O)[O-])cc1 [BAPA, N-benzoyl-L-arginine p-nitroanilide hydrochloride]	–
–	C[C@H](NC(=O)OC(C)(C)C)C(=O)Oc1ccc(C(=N)N)cc1 [5a, N-(tert-butoxycarbonyl)-L-alanine p-amidinophenyl esters]	1.5
